The values below come from patent publication US20240067668A1, “HETEROARYL DERIVATIVE COMPOUND AND USE THEREOF” (VORONOI INC., priority 2020, published 2024).

The structures appear in SMILES notation. Where only a bound is given, the exact number is not on record here.

Assay [1] deals with BaF3-EGFR (Del19/T790M/C797S) cells. As to the kind of experiment: Inhibitory activity on Ba/F3 cell proliferation (CellTiter-Glo, 72 hours). Format: cell-based. To be noted: Ba/F3 cells expressing EGFR Del19/T790M/C797S. The essentials: (§1)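 Ba/F3 cells expressing wild-type EGFR or EGFR Del19/T790M/C797S, 3×10^3 per well, exposed 72 h at 37 °C to compound at 12 threefold dilutions, 0.00005-10 μM final. Viability by CellTiter-Glo 2.0; GI50 derived from growth relative to DMSO-treated cells.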

The next assay concerns BaF3-EGFR (WT) cells. The assay is described as above. It is filed as cell-based. To be noted: Ba/F3 cells expressing EGFR WT. The essentials:
as §1

The target of another assay is EGFR Del19/T790M/C797S (Homo sapiens, UniProt P00533, C797S/T790M, form not given). Put plainly: Enzyme IC50, EGFR Del19/T790M/C797S. Format: biochemical.
EGFR Del19/T790M/C797S, sequence (P00533 25-1210 T790M/C797S, form open): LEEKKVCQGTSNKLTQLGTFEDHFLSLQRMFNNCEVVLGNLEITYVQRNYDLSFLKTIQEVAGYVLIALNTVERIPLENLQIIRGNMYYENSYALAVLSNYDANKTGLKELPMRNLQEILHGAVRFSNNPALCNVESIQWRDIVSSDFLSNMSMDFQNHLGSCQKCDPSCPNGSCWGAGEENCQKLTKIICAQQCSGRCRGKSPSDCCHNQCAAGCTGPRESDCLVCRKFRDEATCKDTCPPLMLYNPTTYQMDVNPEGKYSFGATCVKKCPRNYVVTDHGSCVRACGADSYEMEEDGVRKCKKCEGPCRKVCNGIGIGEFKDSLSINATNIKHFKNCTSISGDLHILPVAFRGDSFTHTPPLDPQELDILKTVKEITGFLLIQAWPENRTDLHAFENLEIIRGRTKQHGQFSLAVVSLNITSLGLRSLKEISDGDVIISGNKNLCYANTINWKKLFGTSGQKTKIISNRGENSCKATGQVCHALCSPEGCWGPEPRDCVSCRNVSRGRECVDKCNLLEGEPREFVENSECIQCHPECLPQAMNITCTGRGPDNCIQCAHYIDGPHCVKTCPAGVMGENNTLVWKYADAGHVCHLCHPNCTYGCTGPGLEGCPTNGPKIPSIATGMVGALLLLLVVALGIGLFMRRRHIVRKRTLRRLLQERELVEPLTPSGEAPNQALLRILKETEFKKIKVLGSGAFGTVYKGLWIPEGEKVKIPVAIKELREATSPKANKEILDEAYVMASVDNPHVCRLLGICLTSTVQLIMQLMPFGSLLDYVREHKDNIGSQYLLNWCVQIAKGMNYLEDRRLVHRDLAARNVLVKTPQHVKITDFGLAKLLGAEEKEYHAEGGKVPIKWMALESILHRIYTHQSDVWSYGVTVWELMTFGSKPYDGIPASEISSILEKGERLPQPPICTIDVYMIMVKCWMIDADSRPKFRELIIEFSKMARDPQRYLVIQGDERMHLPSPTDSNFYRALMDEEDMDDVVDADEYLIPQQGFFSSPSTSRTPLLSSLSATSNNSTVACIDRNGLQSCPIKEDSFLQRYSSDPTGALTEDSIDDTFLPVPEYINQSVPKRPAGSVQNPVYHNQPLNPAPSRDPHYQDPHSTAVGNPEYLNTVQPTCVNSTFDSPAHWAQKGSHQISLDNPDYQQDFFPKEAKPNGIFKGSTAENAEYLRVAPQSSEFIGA

One may read the GI50 as the concentration that inhibits growth by half. One may read the IC50 as the concentration at which inhibition is half-maximal. With `CCc1cc(Nc2nc(Nc3ccc4nccnc4c3P(C)(C)=O)c3cc[nH]c3n2)c(OC)cc1N1CCC(N2CCN(C)CC2)CC1` [Example 55, (6-((2-((5-ethyl-2-methoxy-4-(4-(4-methylpiperazin-1-yl)piperidin-1-yl)phenyl)amino)-7H-pyrrolo[2,3-d]pyrimidin-4-yl)amino)quinoxalin-5-yl)dimethyl-phosphine oxide], the GI50 in assay [1] was ≤ 0.05 µM; in the assay with BaF3-EGFR (WT) cells, > 0.1 µM. The 50% inhibitory concentration (IC50) against EGFR Del19/T790M/C797S was ≤ 0.05 µM.
For the compound `CCOc1ccc(C(F)(F)F)cc1Nc1nc(Nc2ccc3nccnc3c2P(C)(C)=O)c2cc[nH]c2n1` [Example 69, (6-((2-((2-ethoxy-5-(trifluoromethyl)phenyl)amino)-7H-pyrrolo[2,3-d]pyrimidin-4-yl)amino)quinoxalin-5-yl)dimethyl-phosphine oxide], the GI50 (in assay [1]; in the assay with BaF3-EGFR (WT) cells) was > 0.1 µM in each case. Also, the IC50 at EGFR Del19/T790M/C797S was > 0.1 µM.
Turning to `Cc1cn(-c2cc(Nc3nc(Nc4ccc5nccnc5c4P(C)(C)=O)c4cc[nH]c4n3)cc(C(F)(F)F)c2)cn1` [Example 106, dimethyl (6-((2-((3-(4-methyl-1H-imidazol-1-yl)-5-(trifluoromethyl)phenyl)amino)-7H-pyrrolo[2,3-d]pyrimidin-4-yl)amino)quinoxalin-5-yl)phosphine oxide], the GI50 (in assay [1]; with BaF3-EGFR (WT) cells) was > 0.1 µM in each case. Also, on EGFR Del19/T790M/C797S, the IC50 was ≤ 0.05 µM.
For the compound `Cn1cc(-c2cc(Nc3nc(Nc4ccc5nccnc5c4P(C)(C)=O)c4cc[nH]c4n3)ccc2N2CCOCC2)cn1` [Example 34, dimethyl (6-((2-((3-(1-methyl-1H-pyrazol-4-yl)-4-morpholino-phenyl)amino)-7H-pyrrolo[2,3-d]pyrimidin-4-yl)amino)quinoxalin-5-yl)phosphine oxide], the values for the GI50 (in assay [1]; with BaF3-EGFR (WT) cells) were ≤ 0.05 µM and > 0.1 µM, respectively. In addition, on EGFR Del19/T790M/C797S, the 50% inhibitory concentration (IC50) was ≤ 0.05 µM.
With `Cn1cc(-c2cc(N3CCOCC3)c3c(c2Nc2nc(Nc4ccc5nccnc5c4P(C)(C)=O)c4cc[nH]c4n2)OCCO3)cn1` [Example 135, dimethyl (6-((2-((6-(1-methyl-1H-pyrazol-4-yl)-8-morpholino-2,3-dihydrobenzo [b][1,4]dioxin-5-yl)amino)-7H-pyrrolo[2,3-d]pyrimidin-4-yl)amino)quinoxalin-5-yl)phosphine oxide], the GI50 (in assay [1]; in the assay with BaF3-EGFR (WT) cells) was > 0.1 µM each time. Further, the concentration for half-maximal inhibition (IC50) at EGFR Del19/T790M/C797S was > 0.1 µM.
Take `Cc1cc(Nc2nc(Nc3ccc4nccnc4c3P(C)(C)=O)c3cc[nH]c3n2)c(OCC(F)(F)F)cc1N1CCC(N2CCN(C)CC2)CC1` [Example 8, dimethyl (6-((2-((5-methyl-4-(4-(4-methylpiperazin-1-yl)piperidin-1-yl)-2-(2,2,2-trifluoroethoxy)phenyl)amino)-7H-pyrrolo[2,3-d]pyrimidin-4-yl)amino)quinoxalin-5-yl)phosphine oxide]: the concentration for 50% growth inhibition (GI50) in assay [1] was ≤ 0.05 µM; with BaF3-EGFR (WT) cells, > 0.1 µM. For the same compound, the IC50 at EGFR Del19/T790M/C797S was ≤ 0.05 µM.
Turning to `COc1cc(N2CCC3(CCN(C(=O)C4(F)CC4)CC3)CC2)c(-c2cnn(C)c2)cc1Nc1nc(Nc2ccc3nccnc3c2P(C)(C)=O)c2cc[nH]c2n1` [Example 111, (9-(4-((4-((5-(dimethyl-phosphoryl)quinoxalin-6-yl)amino)-7H-pyrrolo[2,3-d]pyrimidin-2-yl)amino)-5-methoxy-2-(1-methyl-1H-pyrazol-4-yl)phenyl)-3,9-diazaspiro[5.5]undecan-3-yl)(1-fluorocyclo-propyl) methanone], the GI50 in assay [1] is ≤ 0.05 µM; in the assay on BaF3-EGFR (WT) cells, > 0.1 µM. Besides, the IC50 against EGFR Del19/T790M/C797S was > 0.1 µM.
Consider `COc1cc(N2C[C@@H]3C[C@H]2CO3)c(-c2cnn(C)c2)cc1Nc1nc(Nc2ccc3nccnc3c2P(C)(C)=O)c2cc[nH]c2n1` [Example 26, (6-((2-((4-((1s,4S)-2-oxa-5-azabicyclo [2.2.1]heptan-5-yl)-2-methoxy-5-(1-methyl-1H-pyrazol-4-yl)phenyl)amino)-7H-pyrrolo[2,3-d]pyrimidin-4-yl)amino)quinoxalin-5-yl)dimethyl-phosphine oxide], for which the GI50 in assay [1] was ≤ 0.05 µM; in the assay with BaF3-EGFR (WT) cells, > 0.1 µM. Besides, the IC50 against EGFR Del19/T790M/C797S was ≤ 0.05 µM.
`COc1cc(N2CCN3CCCC[C@@H]3C2)c(-c2cnn(C)c2)cc1Nc1nc(Nc2ccc3nccnc3c2P(C)(C)=O)c2cc[nH]c2n1` [Example 43, (R)-(6-((2-((2-methoxy-5-(1-methyl-1H-pyrazol-4-yl)-4-(octahydro-2H-pyrido[1,2-alpyrazin)-2-yl)phenyl)amino)-7H-pyrrolo[2,3-d]pyrimidin-4-yl)amino)quinoxalin-5-yl)dimethyl-phosphine oxide]: the results for the GI50 (in assay [1]; with BaF3-EGFR (WT) cells) were ≤ 0.05 µM and 0.05 to 0.1 µM, respectively. Besides, at EGFR Del19/T790M/C797S, the 50% inhibitory concentration (IC50) is ≤ 0.05 µM.
As for `C=CC(=O)Nc1cc(Nc2nc(Nc3ccc4nccnc4c3P(C)(C)=O)c3cc[nH]c3n2)c2c(c1N1CCC(N3CCN(C4CC4)CC3)CC1)OCCO2` [Example 133, N-(5-(4-(4-cyclopropyl-piperazin-1-yl)piperidin-1-yl)-8-((4-((5-(dimethyl-phosphoryl)quinoxalin-6-yl)amino)-7H-pyrrolo[2,3-d]pyrimidin-2-yl)amino)-2,3-dihydrobenzo [b][1,4]dioxin-6-yl)acrylamide], the GI50 is > 0.1 µM in assay [1] and ≤ 0.05 µM in the assay on BaF3-EGFR (WT) cells. At EGFR Del19/T790M/C797S, the IC50 is ≤ 0.05 µM.
Regarding `Cc1cc(Nc2nc(Nc3cnc4ccccc4c3P(C)(C)=O)c3cc[nH]c3n2)c(OCC(F)(F)F)cc1N1CCC(N2CCN(C)CC2)CC1` [Example 13, dimethyl (3-((2-((5-methyl-4-(4-(4-methylpiperazin-1-yl)piperidin-1-yl)-2-(2,2,2-trifluoroethoxy)phenyl)amino)-7H-pyrrolo[2,3-d]pyrimidin-4-yl)amino)quinolin-4-yl)phosphine oxide], the GI50 (in assay [1]; in the assay on BaF3-EGFR (WT) cells) was > 0.1 µM throughout. For the same compound, on EGFR Del19/T790M/C797S, the IC50 was ≤ 0.05 µM.
For `Cn1cc(-c2cc(Nc3nc(Nc4ccc5nccnc5c4P(C)(C)=O)c4cc[nH]c4n3)c(OCC(F)(F)F)cc2F)cn1` [Example 3, (6-((2-((4-fluoro-5-(1-methyl-1H-pyrazol-4-yl)-2-(2,2,2-trifluoroethoxy)phenyl)amino)-7H-pyrrolo[2,3-d]pyrimidin-4-yl)amino)quinoxalin-5-yl) dimethyl-phosphine oxide], the GI50 (in assay [1]; with BaF3-EGFR (WT) cells) was > 0.1 µM each time. Besides, the IC50 at EGFR Del19/T790M/C797S was ≤ 0.05 µM.
With `COc1ccc(-c2cnn(C)c2)cc1Nc1nc(Nc2ccc3nccnc3c2P(C)(C)=O)c2cc[nH]c2n1` [Example 28, (6-((2-((2-methoxy-5-(1-methyl-1H-pyrazol-4-yl)phenyl)amino)-7H-pyrrolo[2,3-d]pyrimidin-4-yl)amino)quinoxalin-5-yl)dimethyl-phosphine oxide], the GI50 in assay [1] was ≤ 0.05 µM; in the assay with BaF3-EGFR (WT) cells, > 0.1 µM. Further, at EGFR Del19/T790M/C797S, the IC50 was ≤ 0.05 µM.
For the compound `COc1cc(N2CCN(C)CC2)c(-c2ccncc2)cc1Nc1nc(Nc2ccc3nccnc3c2P(C)(C)=O)c2cc[nH]c2n1` [Example 70, (6-((2-((2-methoxy-4-(4-methylpiperazin-1-yl)-5-(pyridin-4-yl)phenyl)amino)-7H-pyrrolo[2,3-d]pyrimidin-4-yl)amino)quinoxalin-5-yl)dimethyl-phosphine oxide], the 50% growth inhibitory concentration (GI50) (in assay [1]; in the assay with BaF3-EGFR (WT) cells) was > 0.1 µM each time. The IC50 against EGFR Del19/T790M/C797S was ≤ 0.05 µM.
With `COc1cc(N2CCC(N3CCN(C)CC3)CC2)c(-c2cnn(C)c2)cc1Nc1nc(Nc2ccc3nccnc3c2P(C)(C)=O)c2cc[nH]c2n1` [Example 24, (6-((2-((2-methoxy-5-(1-methyl-1H-pyrazol-4-yl)-4-(4-(4-methylpiperazin-1-yl)piperidin-1-yl)phenyl)amino)-7H-pyrrolo[2,3-d]pyrimidin-4-yl)amino)quinoxalin-5-yl)dimethyl-phosphine oxide], the GI50 in assay [1] is ≤ 0.05 µM; with BaF3-EGFR (WT) cells, > 0.1 µM. On EGFR Del19/T790M/C797S, the IC50 is ≤ 0.05 µM.
For the compound `COc1cc(N2C[C@H]3CC[C@@H](C2)O3)c(-c2cnn(C)c2)cc1Nc1nc(Nc2ccc3nccnc3c2P(C)(C)=O)c2cc[nH]c2n1` [Example 30, (6-((2-((4-((1R,5S)-8-oxa-3-azabicyclo [3.2.1]octan-3-yl)-2-methoxy-5-(1-methyl-1H-pyrazol-4-yl)phenyl)amino)-7H-pyrrolo[2,3-d]pyrimidin-4-yl)amino)quinoxalin-5-yl)dimethyl-phosphine oxide], the GI50 in assay [1] is ≤ 0.05 µM; in the assay with BaF3-EGFR (WT) cells, > 0.1 µM. For the same compound, at EGFR Del19/T790M/C797S, the IC50 is ≤ 0.05 µM.
`COc1cc(N2C[C@H]3COC[C@H]3C2)c(-c2cnn(C)c2)cc1Nc1nc(Nc2ccc3nccnc3c2P(C)(C)=O)c2cc[nH]c2n1` [Example 41, (6-((2-((2-methoxy-5-(1-methyl-1H-pyrazol-4-yl)-4-((3aR,6aS)-tetrahydro-1H-furo[3,4-c]pyrrole-5(3H)-yl)phenyl)amino)-7H-pyrrolo[2,3-d]pyrimidin-4-yl)amino)quinoxalin-5-yl)dimethyl-phosphine oxide]: the concentration for 50% growth inhibition (GI50) in assay [1] was ≤ 0.05 µM; in the assay on BaF3-EGFR (WT) cells, > 0.1 µM. For the same compound, the IC50 against EGFR Del19/T790M/C797S was ≤ 0.05 µM.
On to `Cn1cc(-c2cc(Nc3nc(Nc4ccc5nccnc5c4P(C)(C)=O)c4cc[nH]c4n3)c(OCC(F)(F)F)cc2N2CCC(N3CCOCC3)CC2)cn1` [Example 6, dimethyl (6-((2-((5-(1-methyl-1H-pyrazol-4-yl)-4-(4-morpholino-piperidin-1-yl)-2-(2,2,2-trifluoroethoxy)phenyl)amino)-7H-pyrrolo[2,3-d]pyrimidin-4-yl)amino)quinoxalin-5-yl)phosphine oxide], for which the GI50 in assay [1] is ≤ 0.05 µM; in the assay with BaF3-EGFR (WT) cells, > 0.1 µM. Also, the IC50 at EGFR Del19/T790M/C797S is ≤ 0.05 µM.
